{
  "source": "patent US20250382583A1",
  "about": "“ENHANCED METHODS FOR INDUCING AND MAINTAINING NAIVE HUMAN PLURIPOTENT STEM CELLS” (Washington University, priority 2021, published 2025)",
  "key": {"[1]": {"tested_on": "WIBR3 OCT4-ΔPE-GFP+-naïve hESCs", "experiment": "Extended maintenance assay, OCT4-ΔPE-GFP reporter activity (imaging, qRT-PCR)", "assay_type": "cell-based, human", "settings": "in the presence of ROCK inhibitor (Y) alone; 2.5 and 5 μM; two passages", "protocol": "(§1) Defining alternative naïve maintenance media: To define the activity of selected hit compounds during extended naïve culture, naïve hESCs derived from the primed state and maintained in 5i/L/A were dissociated with Accutase (Thermo Fischer Scientific, A1110501) and 1.5×10^5 single cells were seeded in 5i/L/A media on MEF-coated plates. After 24 hours, 5i/L/A media were switched to experimental maintenance conditions to validate hits from the screen. After 4-6 days the cells were split in a 1:2 or 1:3 ratio and further maintained for 4-6 days before analysis by FACS, qRT-PCR, AP staining, and/or RNA-seq. 5i/L/A media in which the MEK inhibitor PD0325901 was replaced with 5 μM AZ628 are represented as alternative 5i/L/A (a5i/L/A). FXGY, AXGY, AXGYU, PXGY, and GXGY media were prepared in serum-free N2B27 media supplemented with 1 μM PD166866, 5 μM AZ628, 5 μM AZ628 and 1 μM UNC0638, 1 μM PD0325901, and 5 μM GDC-0994, respectively, together with 2 μM XAV939, 2 μM Gö6983, and 10 μM Y-27632. During these assays cells were fed with fresh media every second day and cultured in 5% O2, 5% CO2 at 37° C. Detailed information on conditions used for defining alternative naïve maintenance media can be found in Tables 1-6.\n(§2) Quantitative reverse transcriptase PCR (qRT-PCR): Total RNA was isolated using the E.Z.N.A. total RNA kit I and cDNA synthesis was performed from total RNA using the high-capacity cDNA reverse transcription kit (Applied Biosystems, 4368814). qRT-PCR was performed using PowerUp SYBR Green Master Mix (Applied Biosystems, A25743) on the StepOnePlus Real-Time PCR System (Applied Biosystems). Gene expression was normalized to RPLP0 and analyzed using the ΔCt method. Error bars represent the standard deviation (SD) of the mean of technical replicates.\nFor this purpose, WIBR3 OCT4-ΔPE-GFP+-naïve hESCs that were generated in the absence of reprogramming transgenes were used using the 5i/L/A cocktail. […] Compounds were tested at two different concentrations (2.5 and 5 μM), and cells were maintained for two passages (FIG. 2A)."}, "H9-naïve hESCs [2]": {"tested_on": "H9-naïve hESCs", "experiment": "Extended maintenance assay, flow cytometry for naïve-specific CD75 and SUSD2", "assay_type": "cell-based, human", "settings": "serum-free media supplemented with XGY, 2.5 μM compound", "protocol": "as §1\nFlow cytometry: Primed hESCs were single-cell dissociated using TrypLE Express, while Accutase was used for naïve hESCs. Cells were resuspended in fibroblast medium and centrifuged. Cell pellets were washed in 5 mL ice-cold PBS. The cells were then resuspended in […] fresh ice-cold FACS buffer (PBS supplemented with 5% FBS), and incubated with antibodies for 30 minutes on ice in the dark. The following antibodies were used: anti-SUSD2-PE (1:100), anti-CD75-eFluor 660 (1:100), anti-CD90-PE (1:100), anti-ITGA6-FITC (1:100) and EGFR-APC (1:25). Post-incubation the cells were washed once with 1 mL ice-cold PBS, resuspended in fresh 500 μl FACS buffer, and passed through a […] cell strainer into round bottom FACS tubes (Corning, #352235). Flow cytometry was performed using a BD LSRFortessa X-20 and the data were analyzed using the FlowJo software."}, "H9-naïve hESCs [3]": {"tested_on": "H9-naïve hESCs", "experiment": "qRT-PCR for naïve-specific transcripts (KLF17, DNMT3L) during naïve maintenance", "assay_type": "cell-based, human", "settings": "in XAV/Gö/Y; KLF17 and DNMT3L", "protocol": "as §1, §2"}, "p-ERK1/2": {"tested_on": "p-ERK1/2", "settings": "stated as known; cited from earlier work"}},
  "data": [
    {"smiles": "Cn1nccc1Nc1nccc(-c2ccn([C@H](CO)c3ccc(Cl)c(F)c3)c(=O)c2)n1", "note": "[GDC-0994, (S)-1-(1-(4-chloro-3-fluorophenyl)-2-hydroxyethyl)-4-(2-((1-methyl-1H-pyrazol-5-yl)amino)pyrimidin-4-yl)pyridin-2(1H)-one]", "values": [
      {"measurement": "activity in maintaining OCT4-ΔPE-GFP reporter activity after passaging", "setting": "[1]", "value": "showed activity"},
      {"measurement": "sustaining CD75/SUSD2-positive cells over multiple passages", "setting": "H9-naïve hESCs [2]", "value": "robustly sustained"},
      {"measurement": "concentration effective to maintain expression of naïve-specific transcripts (titration)", "setting": "H9-naïve hESCs [3]", "value": 5, "unit": "µM"},
      {"measurement": "effect on phosphorylation of cellular ERK1/2", "setting": "p-ERK1/2", "value": "not to alter"}
    ]}
  ]
}
